How the values were obtained:
Type in all cases: in vivo
[1] = test system: souris; experiment: Interaction with oxotremorine; details: for effet hypothermisant de l'oxotrémorine / tremblements provoqués par l'oxotrémorine: 0.5 h before oxotremorine 0,5 mg/kg i.p.
Experimental: (§1) Dans ces essais les produits à tester en solution dans de l'eau distillée (pH5) ont été administrés, par voie intrapéritonéale, sous un volume de 20 ml/kg chez la souris mâle, et, sous un volume de 5 ml/kg chez le rat mâle.
Chaque produit à tester est administré à des lots de 6 souris une demi-heure avant l'injection intrapéritonéale de 0,5 mg/kg d'oxotrémorine.

[2] = test system: souris; experiment: Spontaneous motility (actimeter); details: recorded for 0,5 h, 0.5 h after dosing
Experimental: as §1
Une demi-heure après avoir reçu les produits à tester, les souris (6 par dose, 12 témoins) sont placées en actimètre où leur motilité est enregistrée pendant 0,5 h.

[3] = test system: souris; experiment: Acute toxicity, intraperitoneal, mouse; details: I.P.
Experimental: as §1
Le CRL 40 996 est moins toxique que les CRL 40 995 et CRL 40 827. En effet si la DL-0 (dose maximale non mortelle) des trois substances est supérieure ou égale à 64 mg/kg (I.P.; souris), la DL-60 du CRL 40 996 est de l'ordre de 128 mg/kg (I.P.; souris)et la DL-100 des CRL 40 995 et CRL 40 827 est inférieure ou égale à 128 mg/kg (I.P.; souris).

[4] = test system: souris; experiment: Behavioural despair (immobility in water); details: 0.5 h before immersion
Experimental: as §1
Une demi-heure après avoir reçu les produits à tester, des lots de 6 souris sont placés dans un bécher rempli d'eau sur une hauteur de 6 cm. On note la durée totale d'immobilité entre la 2ème et la 6ème minutes suivant l'immersion.

[5] = test system: souris; experiment: Interaction with reserpine
Experimental: as §1
Quatre heures après l'injection intrapéritonéale de 2,5 mg/kg de réserpine, des lots de 6 souris reçoivent chaque produit à tester.

[6] = test system: rat; experiment: Global behaviour and reactivities, rat
Experimental: as §1
(§2) Des lots de 6 animaux sont observés avant, puis 0,25 h, 0,50 h, 1 h, 2 h, 3 h, et 24 h après administration des produits à étudier.

[7] = test system: souris; experiment: Interaction with apomorphine; details: 0.5 h before apomorphine 16 mg/kg s.c.
Experimental: as §1
Des lots de 6 souris reçoivent chaque produit à tester une demi-heure avant l'injection sous-cutanée de 16 mg/kg d'apomorphine.

[8] = test system: souris; experiment: Global behaviour and reactivities, mouse; details: for comportement et réactivités: doses of 2 and 0,5 mg/kg i.p.
Experimental: as §1, §2

[9] = test system: homme; experiment: Clinical use in depressive states; details: oral route, human
Experimental: La posologie préconisée consiste à administrer par jour 3 comprimés ou gélules renfermant chacun 3 à 4 mg de CRL 40 996.

[10] = peripheral cholinergic symptoms after oxotremorine 0,5 mg/kg i.p.
[11] = 32 mg/kg i.p., 4 h after reserpine 2,5 mg/kg i.p.
[12] = doses of 0,5, 2 and 8 mg/kg i.p., 4 h after reserpine 2,5 mg/kg i.p.
[13] = from the dose of 0.5 mg/kg i.p.
[14] = from the dose of 0,5 mg/kg i.p.

CC(C)(C)NCC(O)c1ccccc1F (racemic) [CRL 40 827, chlorhydratede ( + )-1-(2-fluorophényl)-2-tertiobutylamino-1-éthanol]
effet hypothermisant de l'oxotrémorine ([1]; i.p., dose not stated): an- tagonisé | tremblements provoqués par l'oxotrémorine ([1]; i.p., dose not stated): ne sont pas modifiés | signes de stimulation cholinergique [1, 10]: laissent inchangés | activité motrice spontanée ([2]; 8 mg/kg i.p.): ne modifie pas | activité motrice spontanée ([2]; 32 mg/kg i.p.): semble la diminuer modérément mais pas significativement | DL-0 (dose maximale non mortelle) [3]: ≥ 64 mg/kg | DL-100 [3]: ≤ 128 mg/kg

CC(C)(C)NCC(O)c1ccccc1F (single isomer, unassigned) [CRL 40 995, chlorhydratede (+)-1-(2-fluorophényl)-2-tertio-butylamino-1-éthanol]
durée de l'immobilité dite du "désespoir comportemental" ([4]; i.p., dose not stated): ne modifie pas | antagonisme de l'hypothermie réserpinique (animals showing it) [5, 11]: 5 souris sur 6 | perte du réflexe de redressement (et l'hypothermie qui en résulte) [5, 11]: 1 souris sur 6 | hypothermie réserpinique [5, 12]: s'oppose modérément | ptôsis [5, 12]: sans modifier | tremblements provoqués par l'oxotrémorine ([1]; 32 mg/kg i.p., worded as 'seems'): potentialiser | effet hypothermisant de l'oxotrémorine ([1]; i.p., dose not stated): n'est pas modifié | signes de stimulation cholinergique [1, 10]: laissent inchangés | comportement et réactivités ([6]; doses of 16, 4, 1 and 0,5 mg/kg i.p.): sans modifications sensibles par rapport aux animaux témoins | action hypothermisante de l'apomorphine ([7]; doses of 8 and 32 mg/kg i.p.): s'oppose | comportement de verticalisation et stéréotypies ([7]; doses of 8 and 32 mg/kg i.p.): sans modifier | activité motrice spontanée ([2]; doses of 8 and 32 mg/kg i.p.): diminue modérément | DL-0 (dose maximale non mortelle) [3]: ≥ 64 mg/kg | DL-100 [3]: ≤ 128 mg/kg | comportement et réactivités [8]: sans modifications sensibles par rapport aux animaux témoins | respiration déprimée (duration) ([8]; doses of 32 and 8 mg/kg i.p.): 0,5 h

CC(C)(C)NCC(O)c1ccccc1F (single isomer, unassigned) [CRL 40 996, chlorhydratede (-)-1-(2-fluorophényl)-2-tertio-butylamino-1-éthanol]
durée d'immobilité ([4]; doses of 8 and 32 mg/kg i.p.): diminue modérément | latence de l'effet sur l'hypothermie réserpinique [5, 13]: ~1 heure | ptôsis [5, 13]: sans modifier | hypothermie réserpinique ([5]; from the dose of 0.5 mg/kg i.p., effect does not clearly increase with dose): combat modérément | effet hypothermisant de l'oxotrémorine ([1]; i.p., dose not stated): an- tagonisé | tremblements provoqués par l'oxotrémorine ([1]; i.p., dose not stated): ne sont pas modifiés | défécation [1, 10]: semble diminuer | salivation et lacrymation [1, 10]: sans modifier | sédation fugace (duration) ([6]; 4 mg/kg i.p.): 0,25 h | dyspnée (duration) ([6]; 16 mg/kg i.p.): 1 h | sédation (duration) ([6]; 16 mg/kg i.p.): 0,5 h | comportement et réactivités ([6]; doses of 1 and 0,25 mg/kg i.p.): sans modifications sensibles par rapport aux animaux témoins | comportement de verticalisation et stéréotypies [7, 14]: sans modifier | hypothermie induite par l'apomorphine [7, 14]: antagonisme net | activité motrice spontanée ([2]; doses of 8 and 32 mg/kg i.p.): diminution très importante | DL-0 (dose maximale non mortelle) [3]: ≥ 64 mg/kg | DL-60 [3]: ~128 mg/kg | effet antidépresseur dans le traitement des états dépressifs [9]: bon agent antidépresseur | diminution de la réactivité au toucher et du tonus musculaire (duration) ([8]; 8 mg/kg i.p.): 0,25 h | hypothermie ([8]; 8 mg/kg i.p.): -1,8 °C | hypothermie (duration) ([8]; 8 mg/kg i.p.): 0,25 h | sédation (duration) ([8]; 8 mg/kg i.p.): 0,5 h | diminution de la réactivité au toucher et du tonus musculaire (duration) ([8]; 32 mg/kg i.p.): 0,25 h | disparition du "pinna reflex" (duration) ([8]; 32 mg/kg i.p.): 0,5 h | hypothermie ([8]; 32 mg/kg i.p.): -2,0 °C | sédation (duration) ([8]; 32 mg/kg i.p.): 0,5 h | comportement et réactivités [8]: sans modifications sensibles par rapport aux animaux témoins
